Test results from PubChem BioAssay AID1259411 (Chemical Carcinogenesis Research Information System (CCRIS), 2018).
Activity calls are given as the source filed them. No rule for the calls is given here.

Tested on: rodent carcinogenicity bioassays, tumor incidence
Experiment: CCRIS carcinogenicity studies
Procedure, shortened: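 Archive of carcinogenicity, mutagenicity, tumor promotion and tumor inhibition results drawn from journals, NCI reports and other sources, expert-reviewed; covers 1985-2011 and is no longer updated.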

`c1ccc2c(c1)ccc1nc3ccc4ccccc4c3cc12` was tested, and the carcinogen call (Species: MOUSE, Route: DERMAL, Tumor Site: Type of Lesion: INTEGUMENTARY SYSTEM (SKIN)) was “active; positive”, the carcinogen call (Species: MOUSE, Route: SUBCUTANEOUS, Tumor Site: Type of Lesion: LUNG) was “active; positive” and the carcinogen call (Species: MOUSE, Strain/Sex: HSD:ICR(BR)/FEMALE, Route: DERMAL, Dose: 0, 50 NMOL IN 50 µL ACETONE 2/WK FOR 99 WK (STUDY DURATION: 99 WK), Tumor Site: Type of Lesion: SKIN: TUMOR) was “active; positive”. The carcinogen call (Species: RAT, Strain/Sex: OSBORNE-MENDEL/FEMALE, Route: LUNG IMPLANT, Dose: 0, 0.1, 0.3, 1.0 MG IN BEESWAX/TRICAPRYLIN (STUDY DURATION: LIFETIME), Dose: 0, 0.1, 0.3, 1.0 MG IN BEESWAX/TRICAPRYLIN (STUDY DURATION: LIFETIME)) was “inactive; negative”.
With `O=CNNc1nc(-c2ccc([N+](=O)[O-])o2)cs1` the carcinogen call (Species: HAMSTER, Route: ORAL, Tumor Site: Type of Lesion: FORESTOMACH, URINARY BLADDER) was “active; positive”, the carcinogen call (Species: MOUSE, Route: ORAL, Tumor Site: Type of Lesion: FORESTOMACH, HEMATOPOIETIC SYSTEM (LEUKEMIA), LUNG, STOMACH, Tumor Site: Type of Lesion: FORESTOMACH, HEMATOPOIETIC SYSTEM (LEUKEMIA), LUNG, STOMACH) was “active; positive” and the carcinogen call (Species: RAT, Route: ORAL, Tumor Site: Type of Lesion: HEMATOPOIETIC SYSTEM (LEUKEMIA), KIDNEY, LIVER, MAMMARY GLAND, Tumor Site: Type of Lesion: HEMATOPOIETIC SYSTEM (LEUKEMIA), KIDNEY, LIVER, MAMMARY GLAND) was “active; positive”.
For `Nc1ccc(Cc2ccc(N)c(Cl)c2)cc1Cl`, the carcinogen call (Species: MOUSE, Route: ORAL, Tumor Site: Type of Lesion: BLOOD VESSELS, LIVER) was “active; positive”, the carcinogen call (Species: RAT, Route: ORAL, Tumor Site: Type of Lesion: LIVER, LUNG) was “active; positive” and the carcinogen call (Species: RAT, Route: SUBCUTANEOUS, Tumor Site: Type of Lesion: LIVER, LUNG) was “active; positive”. For the same molecule, the carcinogen call (Species: RAT, Strain/Sex: STRAIN-CD/FEMALE, Route: ORAL, Dose: 0, 1000 PPM IN PROTEIN-ADEQUATE (23%) DIET FOR 2 YR (STUDY DURATION: 2 YR), Tumor Site: Type of Lesion: LUNG: ADENOCARCINOMA) was “active; positive”, the carcinogen call (Species: RAT, Strain/Sex: STRAIN-CD/FEMALE, Route: ORAL, Dose: 0, 1000 PPM IN PROTEIN-DEFICIENT (7%) DIET FOR 16 MO (STUDY DURATION: 16 MO), Tumor Site: Type of Lesion: LUNG: ADENOCARCINOMA, MAMMARY GLAND: ADENOCARCINOMA) was “active; positive” and the carcinogen call (Species: RAT, Strain/Sex: STRAIN-CD/MALE, Route: ORAL, Dose: 0, 1000 PPM IN PROTEIN-ADEQUATE (23%) DIET FOR 2 YR (STUDY DURATION: 2 YR), Tumor Site: Type of Lesion: LUNG: ADENOCARCINOMA) was “active; positive”. For the same molecule, the carcinogen call (Species: RAT, Strain/Sex: STRAIN-CD/MALE, Route: ORAL, Dose: 0, 1000 PPM IN PROTEIN-DEFICIENT (7%) DIET FOR 16 MO (STUDY DURATION: 16 MO), Tumor Site: Type of Lesion: LUNG: ADENOCARCINOMA, LIVER: HEPATOCELLULAR ADENOMA, HEPATOCELLULAR CARCINOMA) was “active; positive”.
`CNC(=O)c1c(N(C)N=O)ncn1C` was tested, and the carcinogen call (Species: RAT, Strain/Sex: BD-IX/MALE, FEMALE, Route: ORAL, Dose: 0, 3, 5, 15 MG/KG/D IN DRINKING WATER 5D/WK FOR DURATION OF STUDY (STUDY DURATION: LIFETIME), Dose: 0, 3, 5, 15 MG/KG/D IN DRINKING WATER 5D/WK FOR DURATION OF STUDY (STUDY DURATION: LIFETIME), Tumor Site: Type of Lesion: NASAL CAVITY: TUMOR) was “active; positive”.
In the case of `FCCl`, the carcinogen call (Species: RAT, Strain/Sex: WISTAR/MALE,FEMALE, Route: GAVAGE, Dose: 300 MG/KG IN CORN OIL 5/WK FOR 52 WK, Tumor Site: Type of Lesion: STOMACH: SQUAMOUS CELL CARCINOMA, FIBROSARCOMA) is reported as “active; positive”.
In the case of `Cc1ccc(C)c(OCCCC(C)(C)C(=O)O)c1`, the carcinogen call (Species: RAT, Strain/Sex: STRAIN-CD/MALE, Route: ORAL, Dose: 30, 300 MG/KG IN DIET FOR 2 YR, Tumor Site: Type of Lesion: LIVER: NEOPLASTIC NODULE, CARCINOMA, TESTES: INTERSTITIAL CELL TUMOR) is reported as “active; positive”.
For `Clc1cc(Cl)c(-c2cc(Cl)c(Cl)cc2Cl)cc1Cl`, the carcinogen call (Species: RAT, Strain/Sex: SPRAGUE-DAWLEY/FEMALE, Route: ORAL, Dose: 0, 10, 100, 300, 1000, 3000 NG/KG/D (STUDY DURATION: 2 YRS), Dose: 0, 10, 100, 300, 1000, 3000 NG/KG/D (STUDY DURATION: 2 YRS)) was “inactive; negative”, the carcinogen call (Species: Rat, Strain/Sex: Harlan Sprague-Dawley/Female, Route: Gavage, Dose: 0, 3000 ug/kg in corn oil:acetone (99:1) 5 d/wk for 30 wk then vehicle for remainder of 2 yr study, Tumor Site: Type of Lesion: Liver: Cholangioma (0/53, 2/50)) was “equivocal” and the carcinogen call (Species: Rat, Strain/Sex: Harlan Sprague-Dawley/Female, Route: Gavage, Dose: 0, 10, 100, 300, 1000, 3000 ug/kg in corn oil:acetone (99:1) 5 d/wk for 2 yr, Dose: 0, 10, 100, 300, 1000, 3000 ug/kg in corn oil:acetone (99:1) 5 d/wk for 2 yr; Tumor Site: Type of Lesion: Liver: Cholangioma 0/53, 0/54, 0/53, 0/53, 2/53, 0/51)) was “equivocal”.
In the case of `O=C[C@H](O)[C@@H](O)[C@H](O[C@@H]1O[C@H](CO)[C@H](O)[C@H](O)[C@H]1O)[C@H](O)CO`, the carcinogen call (Species: RAT, Strain/Sex: SPF/FEMALE, Route: ORAL, Dose: 0, 20% IN DIET FOR DURATION OF STUDY ADMINISTERED TO OFFSPRING OF RATS FED THE SAME DIETS (STUDY DURATION: 130 WK)) is reported as “inactive; negative” and the carcinogen call (Species: RAT, Strain/Sex: SPF/MALE, Route: ORAL, Dose: 0, 20% IN DIET FOR DURATION OF STUDY ADMINISTERED TO OFFSPRING OF RATS FED THE SAME DIETS (STUDY DURATION: 130 WK), Tumor Site: Type of Lesion: ADRENAL GLAND: MEDULLARY TUMORS, TESTES: LEYDIG CELL TUMOR) is reported as “active; positive”.
`CN1C(C(=O)Nc2ccccn2)=C(O)c2sc(Cl)cc2S1(=O)=O` was tested, and the carcinogen call (Species: RAT, Strain/Sex: SPRAGUE-DAWLEY/FEMALE, Route: GAVAGE, Dose: 0, 0.0625, 0.125, 0.250 MG/KG BW/D FOR 104 WK, HIGH DOSE REDUCED TO 0.0200 MG/KG FROM STUDY WK 42 TO 50 THEN TO 0.160 MG, Dose: 0, 0.0625, 0.125, 0.250 MG/KG BW/D FOR 104 WK, HIGH DOSE REDUCED TO 0.0200 MG/KG FROM STUDY WK 42 TO 50 THEN TO 0.160 MG) was “inactive; negative” and the carcinogen call (Species: RAT, Strain/Sex: SPRAGUE-DAWLEY/MALE, Route: GAVAGE, Dose: 0, 0.0625, 0.125, 0.250 MG/KG BW/D FOR 104 WK (STUDY DURATION: 104 WK), Dose: 0, 0.0625, 0.125, 0.250 MG/KG BW/D FOR 104 WK (STUDY DURATION: 104 WK)) was “inactive; negative”.
`O[C@H]1[C@H]2O[C@H]2c2c(ccc3cc4ccc5ccccc5c4nc23)[C@@H]1O` was tested, and the carcinogen call (Species: MOUSE, Strain/Sex: CD-1/FEMALE, Route: INTRAPERITONEAL, Dose: 0, 28 NMOL (TOTAL DOSE) ADMINISTERED AS 1/7 OF DOSE WITHIN 24 HR AFTER BIRTH, 2/7 OF DOSE AT 8 D OLD, 4/7 OF DOSE AT 15) was “inactive; negative”, the carcinogen call (Species: MOUSE, Strain/Sex: CD-1/FEMALE, Route: INTRAPERITONEAL, Dose: 0, 175 NMOL (TOTAL DOSE) ADMINISTERED AS 1/7 OF DOSE WITHIN 24 HR AFTER BIRTH, 2/7 OF DOSE AT 8 D OLD, 4/7 OF DOSE AT 15) was “inactive; negative” and the carcinogen call (Species: MOUSE, Strain/Sex: CD-1/MALE, Route: INTRAPERITONEAL, Dose: 0, 28 NMOL (TOTAL DOSE) ADMINISTERED AS 1/7 OF DOSE WITHIN 24 HR AFTER BIRTH, 2/7 OF DOSE AT 8 D OLD, 4/7 OF DOSE AT 15) was “inactive; negative”. The carcinogen call (Species: MOUSE, Strain/Sex: CD-1/MALE, Route: INTRAPERITONEAL, Dose: 0, 175 NMOL (TOTAL DOSE) ADMINISTERED AS 1/7 OF DOSE WITHIN 24 HR AFTER BIRTH, 2/7 OF DOSE AT 8 D OLD, 4/7 OF DOSE AT 15) was “inactive; negative”.
In the case of `CC[C@H](OC(C)=O)C(C[C@H](C)N(C)C)(c1ccccc1)c1ccccc1`, the carcinogen call (Species: MOUSE, Strain/Sex: B6C3F1/FEMALE, Route: ORAL, Dose: 0, 7.6, 30.1 MG/KG IN DIET FOR DURATION OF STUDY (STUDY DURATION: 24 MO), Dose: 0, 7.6, 30.1 MG/KG IN DIET FOR DURATION OF STUDY (STUDY DURATION: 24 MO)) is reported as “inactive; negative”, the carcinogen call (Species: MOUSE, Strain/Sex: B6C3F1/MALE, Route: ORAL, Dose: 0, 7.6, 30.1 MG/KG IN DIET FOR DURATION OF STUDY (STUDY DURATION: 24 MO), Dose: 0, 7.6, 30.1 MG/KG IN DIET FOR DURATION OF STUDY (STUDY DURATION: 24 MO)) is reported as “inactive; negative” and the carcinogen call (Species: RAT, Strain/Sex: F344/FEMALE, Route: ORAL, Dose: 0, 5.7, 16.6 MG/KG IN DIET FOR DURATION OF STUDY (STUDY DURATION: 24 MO), Dose: 0, 5.7, 16.6 MG/KG IN DIET FOR DURATION OF STUDY (STUDY DURATION: 24 MO), Tumor Site: Type of Lesion: LIVER: ADENOMA OR CARCINOMA, UTERUS: ENDOMETRIAL STROMAL POLYP) is reported as “active; positive”. The carcinogen call (Species: RAT, Strain/Sex: F344/MALE, Route: ORAL, Dose: 0, 3.1, 9.7 MG/KG IN DIET FOR DURATION OF STUDY (STUDY DURATION: 24 MO), Dose: 0, 3.1, 9.7 MG/KG IN DIET FOR DURATION OF STUDY (STUDY DURATION: 24 MO), Tumor Site: Type of Lesion: LIVER: ADENOMA OR CARCINOMA) was “active; positive”.
